Measurements taken from PMC2363406 (British Journal of Cancer, 2000).
Where “and” joins values, the source holds several entries; their conditions need not be identical. Identical values can stand only once. Entries after “also recorded” stand apart in the source; their conditions may differ. Counter-ions that a name gives are not always drawn. Like-named read-outs stand apart in the source and are kept apart here.

How the values were obtained:
cytochrome P450 = conditions: cited from earlier work; for metabolic interactions with paclitaxel: paclitaxel pre-medication drugs, 1995, Schlichenmyer et al; for effect on the metabolism of paclitaxel: 1997
HNX22B = test: In vitro growth inhibition (SRB assay), single agents and nolatrexed/paclitaxel combination (Chou and Talalay combination index); format: cell-based
HNX14C = test: as above; format: cell-based
CYP2C8 = target: T1, CYP2C8 (Homo sapiens, UniProt P10632); test: Inhibition of paclitaxel metabolism to 6-hydroxypaclitaxel in pooled human liver microsomes; format: in vitro ADME
T1 construct: Pooled human liver microsomes (1 mg protein per ml) were incubated with paclitaxel; tissue Keystone Skin Bank Exton, PA, USA; host or cells: pooled human liver microsomes from ten individual livers
T1 sequence (P10632 1-490): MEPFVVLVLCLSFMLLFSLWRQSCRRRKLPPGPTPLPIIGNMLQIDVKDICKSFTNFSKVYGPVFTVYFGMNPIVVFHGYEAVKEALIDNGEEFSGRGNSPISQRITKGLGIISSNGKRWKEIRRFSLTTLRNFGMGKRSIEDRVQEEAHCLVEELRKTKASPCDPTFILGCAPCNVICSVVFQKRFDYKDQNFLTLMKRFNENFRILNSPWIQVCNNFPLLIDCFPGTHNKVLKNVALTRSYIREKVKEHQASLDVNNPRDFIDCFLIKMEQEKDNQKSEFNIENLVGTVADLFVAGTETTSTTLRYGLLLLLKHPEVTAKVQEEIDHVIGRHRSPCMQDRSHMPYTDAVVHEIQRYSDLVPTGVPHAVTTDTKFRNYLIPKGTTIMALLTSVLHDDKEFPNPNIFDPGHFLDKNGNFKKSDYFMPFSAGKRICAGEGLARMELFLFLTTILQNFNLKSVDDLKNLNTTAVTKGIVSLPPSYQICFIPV

[1] = Clinical plasma pharmacokinetics of nolatrexed (HPLC, non-compartmental analysis); format: in vivo, human; conditions: for half-life: human, plasma, iv, Nolatrexed Half-life; for half-life / Nolatrexed Half-life / Nolatrexed Clearance: nolatrexed 500 mg m-2 day-1 120-h i.v. infusion
[2] = single agent, 135 mg m-2, cited from earlier work
[3] = Clinical plasma pharmacokinetics of paclitaxel and its metabolites (HPLC, non-compartmental analysis); conditions: for AUC / half-life: human
[4] = in vitro studies, ref Jamis-Dow et al
[5] = schedule 1, patients 3, 6, 9 in order
[6] = schedule 2, patients 5, 7, 10 in order
[7] = schedule 3, patients 2, 4, 8 in order
[8] = 3-h paclitaxel exposure, single agent, mean (s.d.) n = 3
[9] = schedule 1, paclitaxel 80 mg m-2 3-h i.v., course 1, patients 3, 6, 9 in order
[10] = schedule 2, paclitaxel 80 mg m-2
[11] = schedule 2, paclitaxel 80 mg m-2 3-h i.v., course 1, patients 5, 7, 10 in order
[12] = human liver preparations and patients, ref Harris et al, 1994, Kuhn et al

## CN(C)CCC(c1ccc(Cl)cc1)c1ccccn1 (stereo not drawn) [chlorpheniramine]
Cytochrome P450; ref Jamis-Dow et al
  metabolic interactions with paclitaxel: no metabolic interactions

## CN/C(=N/CCSCc1nc[nH]c1C)NC#N [cimetidine]
Cytochrome P450; ref Jamis-Dow et al
  metabolic interactions with paclitaxel: no metabolic interactions

## C[C@@H]1C[C@H]2[C@@H]3CCC4=CC(=O)C=C[C@]4(C)[C@@]3(F)[C@@H](O)C[C@]2(C)[C@@]1(O)C(=O)CO [dexamethasone]
Cytochrome P450; ref Jamis-Dow et al
  metabolic interactions with paclitaxel: no metabolic interactions

## OC(Cn1cncn1)(Cn1cncn1)c1ccc(F)cc1F [fluconazole]
Cytochrome P450; [4]
  effect on the metabolism of paclitaxel: inhibit the metabolism of paclitaxel

## CC(=O)N1CCN(c2ccc(OCC3COC(Cn4ccnc4)(c4ccc(Cl)cc4Cl)O3)cc2)CC1 (stereo not drawn) [ketoconazole]
Cytochrome P450; [4]
  effect on the metabolism of paclitaxel: inhibit the metabolism of paclitaxel

## Cc1ccc2nc(N)[nH]c(=O)c2c1Sc1ccncc1 [nolatrexed, 3,4-dihydro-2-amino-6-methyl-4-oxo-5-(4-pyridylthio)-quinazolone dihydrochloride]
HNX22B; 120 h
  IC50: 660 nM
HNX14C; 120 h
  IC50: 1120 nM
CYP2C8; human liver microsomes, statement in words
  inhibition of paclitaxel metabolism: being an inhibitor of the major routes of metabolism of paclitaxel
CYP2C8; read-out: Ki, inhibition of metabolism of paclitaxel to its 6-hydroxy-metabolite
  Ki: 640 nM
[1]; [5]
  half-life: 1.1 h
  Nolatrexed Half-life: 1.88 h and 2.13 h
[1]; [6]
  half-life: 1.97 h
  Nolatrexed Clearance: 73 ml min-1 m-2 and 108 ml min-1 m-2 and 91 ml min-1 m-2
  Nolatrexed Half-life: 1.58 h and 2.57 h
[1]; [7]
  half-life: 1.62 h
  Nolatrexed Clearance: 99 ml min-1 m-2 and 62 ml min-1 m-2 and 79 ml min-1 m-2
  Nolatrexed Half-life: 2.2 h and 1.9 h
[1]; three schedules with paclitaxel
  effect of schedule on the pharmacokinetics of nolatrexed: no effect of schedule; also recorded: unaffected by schedule

## CC(=O)O[C@H]1C(=O)[C@@]2(C)[C@H]([C@H](OC(=O)c3ccccc3)[C@]3(O)C[C@H](OC(=O)[C@H](O)[C@@H](NC(=O)c4ccccc4)c4ccccc4)C(C)=C1C3(C)C)[C@]1(OC(C)=O)CO[C@@H]1C[C@@H]2O [paclitaxel]
HNX22B; [8]
  IC50: 38 nM
HNX14C; [8]
  IC50: 31 nM
[2]; ref Gianni, 1995
  Paclitaxel Clearance: 247 ml min-1 m-2
[2]; ref Keung, 1993
  Paclitaxel Clearance: 295 ml min-1 m-2
[3]; plasma, intravenous, 80 mg, AUCs of paclitaxel, schedules 1 and 3 (except patient 8), paclitaxel 80 mg m-2
  AUC: 3 to 4.85 µM·h
[3]; plasma, intravenous, 135 mg m-2, Paclitaxel AUC, patient 8, single-agent paclitaxel 135 mg m-2 as 3-h infusion, no nolatrexed
  AUC: 20.6 µM·h
[3]; plasma, intravenous, 135 mg m-2, Paclitaxel Half-life, patient 8, single-agent paclitaxel 135 mg m-2 as 3-h infusion, no nolatrexed
  half-life: 6 h
[3]; plasma, iv, 80 mg, Paclitaxel AUC, schedule 1, paclitaxel 80 mg m-2 3-h i.v., course 1, patients 3, 6, 9 in order
  AUC: 3.78 µM·h
[3]; plasma, iv, 80 mg, Paclitaxel AUC, schedule 2, paclitaxel 80 mg m-2 3-h i.v., course 1, patients 5, 7, 10 in order
  AUC: 9.42 µM·h
[3]; plasma, iv, 80 mg, Paclitaxel Half-life, schedule 1, paclitaxel 80 mg m-2 3-h i.v., course 1, patients 3, 6, 9 in order
  half-life: 7.02 h
[3]; plasma, iv, 80 mg, Paclitaxel Half-life, schedule 2, paclitaxel 80 mg m-2 3-h i.v., course 1, patients 5, 7, 10 in order
  half-life: 6.88 h
[3]; plasma, iv, 80 mg, Paclitaxel Half-life, schedule 3, paclitaxel 80 mg m-2 3-h i.v., course 1, patients 2, 4, 8 in order
  half-life: 6.08 h
[3]; patient 8, single-agent paclitaxel 135 mg m-2 as 3-h infusion, no nolatrexed
  Paclitaxel Clearance: 127 ml min-1 m-2
[3]; patients on schedules 1 and 3 (with the exception of patient 8), paclitaxel 80 mg m-2
  clearance of paclitaxel: 322–520 ml min-1 m-2 and 322-520 ml min-1 m-2
[3]; [9]
  Paclitaxel Clearance: 376 ml min-1 m-2 and 322 ml min-1 m-2 and 411 ml min-1 m-2
  Paclitaxel Half-life: 7.37 h and 8.45 h
[3]; schedule 2
  time above plasma paclitaxel concentration of 0.05 M: 16 to 27 h
  time above plasma paclitaxel concentration of 0.1 M: 10 to 18 h
[3]; schedule 2 (nolatrexed 0-120 h, paclitaxel 48-51 h), paclitaxel 80 mg m-2 3-h i.v., plasma, course 1, patients 5, 7, 10 in order
  Paclitaxel Peak conc.: 1.66-1.93 M
[3]; [10]
  areas under the curve of paclitaxel: 392 to 565 µM/min
  peak plasma concentrations of paclitaxel: 1.66 to 1.93 µM
[3]; [11]
  Paclitaxel Clearance: 165–238 ml min-1 m-2 and 165 ml min-1 m-2 and 238 ml min-1 m-2 and 171 ml min-1 m-2 and 165-238 ml min-1 m-2
  Paclitaxel Half-life: 6.35 h and 6.93 h
[3]; schedule 2, paclitaxel 80 mg m-2 3-h i.v., plasma, course 1, patients 5, 7, 10 in order
  Paclitaxel AUC: 392 to 565 M/min
[3]; schedule 3, paclitaxel 80 mg m-2 3-h i.v., course 1, patients 2, 4, 8 in order
  Paclitaxel Half-life: 8.42 h and 6.35 h
[3]; schedules 1 and 3
  time above plasma paclitaxel concentration of 0.05 M: 8 to 18 h
  time above plasma paclitaxel concentration of 0.1 M: 5 to 8 h
[3]; schedules 1 and 3 (except patient 8), paclitaxel 80 mg m-2
  peak plasma concentrations of paclitaxel: 860000 to 1.32e+06 µM

## CCC1(c2ccccc2)C(=O)NC(=O)NC1=O [phenobarbitone]
Cytochrome P450; [12]
  effect on the metabolism of paclitaxel: increase the metabolism of paclitaxel

## O=C1NC(=O)C(c2ccccc2)(c2ccccc2)N1 [phenytoin]
Cytochrome P450; [12]
  effect on the metabolism of paclitaxel: increase the metabolism of paclitaxel
